Results on 25 molecules are retold here after patent US20150328329A1, “LIGANDS THAT TARGET HCV-E2 BINDING SITES ON CD81 AND THERAPEUTIC METHODS USING THEM” (American University of Cairo, priority 2012, published 2015).

One experiment addresses T1, recombinant CD81-LEL (Homo sapiens, UniProt P60033).
T1 construct: the large extracellular loop of CD81 (CD81-LEL); GST; His; Shoshana Levy Lab, Stanford (gift)
T1 sequence (P60033 113-201 limits assumed): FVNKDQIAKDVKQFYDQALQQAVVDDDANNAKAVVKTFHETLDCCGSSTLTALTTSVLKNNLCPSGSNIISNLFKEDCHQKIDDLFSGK
Put plainly: Dual polarization interferometry (DPI) binding of ligands to immobilized recombinant CD81-LEL. To be noted: for DPI Response (Radians), ligand added to CD81 protein: Table B and b111; for DPI Response (Radians), ligand added to CD81 protein / DPI Radians: ligand 500 μM in PBS, 2.5% DMSO; for DPI Radians: Table A. The procedure: DPI analyses were performed using an AnaLight 4D workstation (Farfield Group, Manchester UK). The recombinant CD81-LEL was immobilized onto a Thiol AnaChip using Sulfo-GMBS as a cross-linker in PBS running buffer. Non-specific sites were blocked with digested casein. TRIS was used to cap the cross-linker, blocking any additional amines from covalently binding to the cross-linker on the chip surface. Ligands were prepared as a 20 mM stock solutions in DMSO. Each ligand was diluted to a final concentration of 500 μM in PBS just prior to injection (final DMSO concentration was 2.5%). PBS and DMSO mixed in the same ratio were used as a blank. Data collection and analysis were performed using the AnaLight Resolver.
Six of the more interesting ligand candidates being considered for use in creating a ligand conjugate (three calculated to bind to Site 1 and three calculated to bind to Site 2) were further tested to confirm binding using a second experimental technique, dual polarization interferometry. The results, shown in FIG. 6, confirmed that all six ligands bound to the protein. The relative rank in strength of binding of the Site 1 and 2 ligands, as determined by DPI, were also similar to the ranking obtained by SPR or calculated by AutoDock for the majority of the ligands. […] One reason for this observed difference in the DPI response may relate to conformational changes in the protein that occur when the small molecules bind. The change in radians measured using DPI when a ligand binds to a protein is known to result from a combination of two effects: 1) the resulting increase in mass/volume when the ligand binds to the protein on the surface of the chip and 2) a conformational change in the protein induced by the binding of the ligand. Molecules binding in the deeper cavity would be expected to have more and stronger contacts with the protein than ligands sitting exposed to solvent in shallow cavities or surface binding sites. […]

Experiment [1] concerns the target T2, recombinant CD81-LEL (GST tag) (Homo sapiens, UniProt P60033).
T2 construct: the large extracellular loop of CD81 (CD81-LEL); gift of Dr. Shoshana Levy, Stanford University
T2 sequence (P60033 113-201 limits assumed): T1 sequence (P60033 113-201 limits assumed)
Put plainly: Surface plasmon resonance (Biacore T200) binding of ligands to immobilized recombinant CD81-LEL. To be noted: Table A; ligand 600 μM in PBS-0.05% Tween-80; CD81-LEL-GST on CM5 chip. As for the experimental part: SPR analysis was performed using a Biacore T200 workstation (GE Healthcare, NJ, USA). A recombinant form of the CD81-LEL protein with a GST tag (generously provided by Dr. Shoshana Levy, Stanford University) was used to confirm, using an established experimental technique, the binding of several ligands to the protein. Briefly, 10 μM CD81-LEL-GST diluted into 10 mM Na-Acetate buffer pH 4.5 was immobilized for 15 min at a flow speed of 5 μl/min onto a CM5 sensor chip using amine-coupling (EDC-NHS). Approximately 20,000 RU of protein were immobilized on the chip. The ligands were prepared as 600 μM solutions in PBS-0.05% Tween-80 (the running buffer) and they were introduced to the protein using a pre-programmed 3 minute association and 1 minute dissociation interval.
The binding affinity of the most tightly bound ligand in the group selected for ligand conjugate design (Ligand 1) was estimated using data collected from a series of SPR binding experiments conducted at different ligand concentrations. To obtain the kinetic and affinity data needed to estimate the Kd, the original ligand was diluted serially with running buffer to produce seven different ligand concentrations: 1024 μM, […], 256 μM, 128 μM, 64 μM, 32 μM and 0 μM. Data were fitted using a monovalent binding model.
A total of 36 ligands were tested experimentally using surface Plasmon resonance (on a Biacore T200 instrument) to identify which of the molecules calculated to bind to Sites 1 and 2 on CD81 actually bind to a recombinant form of the protein (CD81-LEL). Twenty-six of the molecules provided a positive change in response units (RU) upon introduction to a chip containing the immobilized protein (Table A), indicating the ligands bound to the protein. The measured responses for the ligands that bound varied from 2.3 to 78.4 RU. Those ligands providing the largest responses tended to be molecules that were calculated to bind more deeply inside cavities in Site 1 (ligands 30930, 98026, 7436, 5069), Site 2 (ligands 127947, 38743) or Site 4 (ligands 78623, 16631).
Experimental analysis of ligand binding to recombinant CD81 LEL. Forty ligands calculated by AutoDock to bind to sites 1 and 2 on CD81-LEL were tested experimentally using surface Plasmon resonance as described in the Materials and Methods section. Ligand code numbers are those assigned by the National Cancer Institute. […] Because the binding experiments were performed by passing the same concentration of each ligand sequentially across the same protein coated chip using both techniques, the magnitude of the responses can be used to provide an approximate ranking of binding strength.

Experiment [2] has as its target T3, native CD81 on Raji cells (Homo sapiens, UniProt P60033).
T3 construct: endogenous in cells; host or cells: Raji (human B cell line)
T3 sequence (P60033 1-236): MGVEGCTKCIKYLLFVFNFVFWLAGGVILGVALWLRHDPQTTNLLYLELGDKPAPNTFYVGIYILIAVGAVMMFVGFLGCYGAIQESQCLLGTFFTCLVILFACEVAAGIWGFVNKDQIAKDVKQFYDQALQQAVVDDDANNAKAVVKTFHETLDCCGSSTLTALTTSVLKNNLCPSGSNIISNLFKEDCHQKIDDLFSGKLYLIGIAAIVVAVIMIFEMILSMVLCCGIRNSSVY
Put plainly: Competition assay: inhibition of FITC-labeled JS-81 anti-CD81 antibody binding to native CD81 on live Raji cells (flow cytometry). In kind it is cell-based. An excerpt:
A subset of these ligands and some of those listed in the patent have been tested to identify those ligands that bind to the correct region of the CD81 protein and for binding to native CD81 on living cells (a Raji cell line). This assay tests three concentrations of the ligand to determine if the ligand is capable of inhibiting the binding of an antibody called JS-81. This antibody is known to bind to the region of the CD81 protein we have targeted. If the ligand decreases JS-81 binding as you increase the concentration of the ligand, it is 1) binding to native CD81 on the Raji cells and 2) it is binding to the correct region of the protein.
For antibody neutralization assay Raji cells were used, a human B cell line that expressed high amounts of CD81 on the surface (data not shown). Cells were grown in RPMI medium (10% FCS, 1% penicillin/streptomycin, 1% L-glutamine, 1% non-essential amino acids, 1% sodium pyruvate, pH 7.4, at 37° C. with 5% CO2). 2×10^5 cells were incubated with or without different concentrations (50 μM, 100 μM, 400 μM and 1 mM) of indicated inhibitor for 20 min at room temperature, subsequently 1 ul (16 ng/μl) of FITC-labeled anti CD81 antibody (BD Pharmingen, 551108) was added to the cells and incubated for 20 min (antibody titration was performed to obtain a working dilution range, data not shown). Cells were washed and analyzed by flow cytometry using fluorescence-activated cell sorting (FACS) (BD FACSCalibur, software: Cell Quest Pro). Mean Fluorescence Intensity MFI was calculated using Flowjo software (TreesStar, www.flowjo.com).

`O=C(OCc1ccccc1)c1ccccc1O` [Benzyl salicylate, reference compound]: the “DPI Response (Radians), ligand added to CD81 protein” value (from here on “DPI Response (Radians), ligand added”) on recombinant CD81-LEL is listed as 0.5818 Radians; on recombinant CD81-LEL (listed as benzyl salicylate), 0.58 Radians.

On to `O=C(O)CC1OCC=C2CN3CCC45C6=CC(=O)C(=O)C([N+](=O)[O-])=C6NC4C1C2CC35` (centres unmarked) [Ligand 5069], for which the “SPR Response Units” value in experiment [1] was 67.5 RU. As to `CC(C)(C)c1ccc(NS(=O)(=O)c2ccc(N)cc2)cc1` [Ligand 7436], the “SPR Response Units” value in experiment [1] came to 78.4 RU. Also, the “Inhibition of JS-81 Binding (%)” value in experiment [2] (50 μM ligand) is on record as 0%; in experiment [2] (100 μM ligand) it was 12%; in experiment [2] (400 μM ligand) it was 11%. As to `O=C(O)CSc1nc2ccccc2s1` [Ligand 11891], in experiment [1], the “SPR Response Units” value turned out to be 15.2 RU.

On to `O=C(O)c1ccc(O)c(O)c1` [Ligand 16631], for which, in experiment [1], the “SPR Response Units” value stood at 61.8 RU.

Consider `O=C(O)/C=C\c1cc2c(cc1[N+](=O)[O-])OCO2` [Ligand 21034], for which the “SPR Response Units” value in experiment [1] is recorded as 21.1 RU. Still for that read-out and setting: under `CC(C)OC1CCCC(O)C1CC(=O)O` (centres unmarked) [Ligand 25368] stands 13.3 RU. Turning to `O=C(O)Cn1cnc2c(=S)nc[nH]c21` [Ligand 36914], the “DPI Radians” value on recombinant CD81-LEL was found to be 0.1448 Radians. Consider `O=C(O)CCC1(c2ccccc2)NC(=O)NC1=O` (centres unmarked) [Ligand 38743], for which the “SPR Response Units” value in experiment [1] was 30.6 RU. Also, the “DPI Response (Radians), ligand added” value on recombinant CD81-LEL was 0.8593 Radians. `O=C(O)c1ccccc1C(=O)Nc1ccccc1[N+](=O)[O-]` [Ligand 41066]: the “DPI Radians” value at recombinant CD81-LEL stood at 0.2700 Radians. As to `CC(C)CNC(=O)/C=C\C(=O)O` [Ligand 55573], the “SPR Response Units” value in experiment [1] amounted to 10.6 RU. For `O=C(O)CCCCC1SCC2NC(=O)NC21` (centres unmarked) [Ligand 63865], in experiment [1], the “SPR Response Units” value was 58 RU. Same read-out and setting: as for `O=C(Nc1ccc(O)c(C(=O)O)c1)Oc1ccccc1` [Ligand 68971], the figure is 12.1 RU. On to `N=C(N)N/N=C/c1c(Cl)cccc1Cl` [Ligand 68982], for which the “SPR Response Units” value in experiment [1] was found to be 41.2 RU. Besides, the figures for the “Inhibition of JS-81 Binding (%)” value in experiment [2] (50 μM ligand), in experiment [2] (100 μM ligand) and in experiment [2] (400 μM ligand) were 0%, 13% and 15%, respectively. `Nc1nc(O)c(CC(=O)O)s1` [Ligand 70980]: the “SPR Response Units” value in experiment [1] came to 14.1 RU. In the case of `COc1cc(-c2ccc(Nc3ccccc3C(=O)O)c(OC)c2)ccc1Nc1ccccc1C(=O)O` [Ligand 73735], the “SPR Response Units” value in experiment [1] was 1957.8 RU. In addition, the “Inhibition of JS-81 Binding (%)” value in experiment [2] (50 μM ligand) is listed as 0%; in experiment [2] (100 μM ligand), 0%; in experiment [2] (400 μM ligand) it was 24%. Turning to `NC(=O)CCC(C(=O)O)N1C(=O)c2ccc(O)cc2C1=O` (centres unmarked) [Ligand 78623], the “SPR Response Units” value in experiment [1] is listed as 54.5 RU. On to `O=C(O)/C=C\C(=O)Nc1nccs1` [Ligand 80807], for which the “DPI Radians” value on recombinant CD81-LEL was determined as 0.1909 Radians. With `Cn1c(=O)c2[nH]c(CNc3ccc(C(=O)O)cc3)nc2n(C)c1=O` [Ligand 81750], the “DPI Radians” value at recombinant CD81-LEL was 0.4360 Radians. Take `CC(C)=CCC1=C(OCC(=O)O)C(=O)c2ccccc2C1=O` [Ligand 98026]: the “SPR Response Units” value in experiment [1] turned out to be 50 RU. For the same molecule, the results for the “Inhibition of JS-81 Binding (%)” value in experiment [2] (50 μM ligand), in experiment [2] (100 μM ligand) and in experiment [2] (400 μM ligand) were 0%, 0% and 21%, respectively. In addition, the “DPI Response (Radians), ligand added” value on recombinant CD81-LEL is reported as 1.1918 Radians. Turning to `CCCNC1=C(C)C(=O)C2=C(C1=O)C(COC(N)=O)C1(OC)C3NC3CN21` (centres unmarked) [Ligand 123115], in experiment [1], the “SPR Response Units” value is listed as 34.5 RU. In the case of `NC(=S)Nc1cccc(Cl)c1` [Ligand 164965], on recombinant CD81-LEL, the “DPI Radians” value was 0.7494 Radians and the “DPI Response (Radians), ligand added” value stood at 0.7494 Radians. As for `COc1cc(CCC(=O)O)on1` [Ligand 303800], in experiment [1], the “SPR Response Units” value came out at 7.8 RU. The same measure, in the same setting: under `COc1ccccc1/C=C(\C#N)C(=O)O` [Ligand 638134] stands 25 RU.

B1: E2 Protein: HCV E2 envelope glycoprotein that binds CD81 (protein)
chain: QTHITGGSTAHAAAGLANLFSMGPKQDIRLINTNGSWHINRTALNCNESLNTGWVAGLLYYNKFNSSGCSERLASCRPLTDFAQGWGPISYANGSGPDQRPYCWHYPPRPCGIVPAKSVCGPVYCFTPSPVVVGTTDRSGAPTYSWGENETDVFILNNTRPPLGNWFGCTWMNSSGFTKVCGAPPCVIGGVGNNTLRCPTDCFRKHPEATYSRCGSGPWITPRCLVNYPYRLWHYPCTINYTIFKVRMYVGGVEHRLEAACNWTRGERCDLEDRDRSELSPLLLSTTQWQVLPCSFTTLPALSTGLIHLHQNIVDVQYLYGVGSSIASWAIKWDYVVLLFLLLADARVCSCLWMMLLISQAEA
With B1, in the experiment with recombinant CD81-LEL (Table D, single molecule added to CD81), the “DPI Binding Response (Radians), molecule added alone to CD81” value was determined as 4.1402 Radians.
